Values belong to the compound of their own block, whether it stands above or below them. Calls of active or inactive are those of the source. The rule behind the calls is not given here.
Assays:
[1] = Half life in Beagle dog at 1 mg/kg, iv by LC-MS/MS analysis; format: ADME, organism-based, Canis lupus familiaris; details: in vivo
Plasma [2] = experiment: (§1) Unbound fraction in rat plasma at […], iv administered as bolus dose followed by […], iv infusion for 3 hrs; format: ADME, organism-based; details: in vivo
Plasma [3] = experiment: as §1; format: ADME, organism-based; details: in vivo; remark: listed apart in the source
[4] = Volume of distribution in Beagle dog at 1 mg/kg, iv by LC-MS/MS analysis; format: ADME, organism-based, Canis lupus familiaris; details: in vivo
[5] = Stability of the compound in presence of light measured after 12 hrs; format: physicochemical; details: read-out: Stability
[6] = Half life in Han-Wistar rat at 1 mg/kg, iv by LC-MS/MS analysis; format: ADME, organism-based; details: in vivo
[7] = Half life of the compound at pH 6 under oxidative condition; format: physicochemical
[8] = Clearance in Beagle dog blood at 1 mg/kg, iv by LC-MS/MS analysis; format: ADME, organism-based, Canis lupus familiaris; details: whole blood
[9] = target: Kynurenine 3-monooxygenase (Rattus norvegicus, UniProt O88867); experiment: Inhibition of rat KMO expressed in HEK293 cells using kynurenine as substrate measured after 20 hrs by LC-MS/MS analysis; format: cell-based; details: read-out: Ki(app)
[10] = Clearance in Han-Wistar rat blood at 1 mg/kg, iv by LC-MS/MS analysis; format: ADME, organism-based; details: whole blood
[11] = Volume of distribution at steady state in Han-Wistar rat at 1 mg/kg, iv by LC-MS/MS analysis; format: ADME, organism-based; details: in vivo, read-out: Vdss
[12] = Protein binding in Han-Wistar rat plasma at 1 mg/kg, iv by LC-MS/MS analysis; format: ADME, organism-based; details: read-out: PPB (converted)
Plasma [13] = experiment: as §1; format: ADME, organism-based; details: in vivo; remark: listed apart in the source
Rattus norvegicus [14] = experiment: (§2) In vivo inhibition of KMO in rat assessed as increase in kynurenine levels in plasma at […], iv administered as bolus followed by […], iv infusion for 3 hrs; format: functional, organism-based
[15] = target: Tryptophan 2,3-dioxygenase (Homo sapiens) (UniProt P48775); experiment: Inhibition of TDO (unknown origin)
[16] = target: T1, Kynureninase (Homo sapiens) (UniProt Q16719); experiment: Inhibition of kynureninase (unknown origin)
T1 sequence (whole entry): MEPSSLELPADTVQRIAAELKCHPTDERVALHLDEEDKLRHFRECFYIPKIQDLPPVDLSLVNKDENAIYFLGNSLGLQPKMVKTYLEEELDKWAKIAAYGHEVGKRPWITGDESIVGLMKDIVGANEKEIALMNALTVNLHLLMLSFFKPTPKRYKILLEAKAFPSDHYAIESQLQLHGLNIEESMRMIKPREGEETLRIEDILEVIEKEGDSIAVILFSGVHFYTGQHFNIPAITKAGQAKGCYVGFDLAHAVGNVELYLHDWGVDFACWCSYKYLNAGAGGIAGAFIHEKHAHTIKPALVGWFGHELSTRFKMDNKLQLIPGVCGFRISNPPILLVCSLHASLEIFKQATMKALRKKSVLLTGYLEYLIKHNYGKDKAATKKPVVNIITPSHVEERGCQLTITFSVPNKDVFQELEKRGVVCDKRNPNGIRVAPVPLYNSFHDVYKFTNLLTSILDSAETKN

Rattus norvegicus [17] = experiment: Increase in kynurenic acid levels in iv dosed rat plasma measured post last dose; format: functional, organism-based
Rattus norvegicus [18] = experiment: Organoprotective activity against acute pancreatitis-induced kidney damage in rat assessed as decrease in plasma creatinine levels at 20 mg/kg, iv as bolus dose administered 1 hr post acute pancreatitis induction followed by drug administration at 2.2 mg/kg/hr, iv as infusion over 5 hrs; format: functional, organism-based
[19] = target: Kynurenine/alpha-aminoadipate aminotransferase, mitochondrial (Homo sapiens) (UniProt Q8N5Z0); experiment: Inhibition of KAT2 (unknown origin)
Rattus norvegicus [20] = experiment: Organoprotective activity in lung of acute pancreatitis rat model assessed as decrease in levels of protein leak in bronchoalveolar lavage fluid at 20 mg/kg, iv as bolus dose administered 1 hr post acute pancreatitis induction followed by drug administration at 2.2 mg/kg/hr, iv as infusion over 5 hrs; format: functional, organism-based
Rattus norvegicus [21] = experiment: Organoprotective activity against acute pancreatitis-induced pancreatic injury in rat assessed as decrease in serum amylase levels at 20 mg/kg, iv as bolus dose administered 1 hr post acute pancreatitis induction followed by drug administration at 2.2 mg/kg/hr, iv as infusion over 5 hrs; format: functional, organism-based
Rattus norvegicus [22] = experiment: (§3) Effect on circulating tryptophan levels in rat plasma at […], iv administered as bolus dose followed by […], iv infusion for 3 hrs; format: functional, organism-based
Rattus norvegicus [23] = experiment: (§4) Organoprotective activity in lung of acute pancreatitis rat model assessed as inflammatory infiltrates at 20 mg/kg, iv as bolus dose administered 1 hr post acute pancreatitis induction followed by drug administration at 2.2 mg/kg/hr, iv as infusion over 5 hrs by haematoxylin/eosin stain based light microscopic analysis; format: functional, organism-based
Rattus norvegicus [24] = experiment: Increase in kynurenine level in plasma of rat model of cerulean-induced acute pancreatitis at 20 mg/kg, iv administered as bolus dose followed by 2.2 mg/kg/hr 5 hrs iv infusion; format: functional, organism-based
[25] = target: T2, Kynurenine--oxoglutarate transaminase 1 (Homo sapiens) (UniProt Q16773); experiment: Inhibition of KAT1 (unknown origin)
T2 sequence (whole entry): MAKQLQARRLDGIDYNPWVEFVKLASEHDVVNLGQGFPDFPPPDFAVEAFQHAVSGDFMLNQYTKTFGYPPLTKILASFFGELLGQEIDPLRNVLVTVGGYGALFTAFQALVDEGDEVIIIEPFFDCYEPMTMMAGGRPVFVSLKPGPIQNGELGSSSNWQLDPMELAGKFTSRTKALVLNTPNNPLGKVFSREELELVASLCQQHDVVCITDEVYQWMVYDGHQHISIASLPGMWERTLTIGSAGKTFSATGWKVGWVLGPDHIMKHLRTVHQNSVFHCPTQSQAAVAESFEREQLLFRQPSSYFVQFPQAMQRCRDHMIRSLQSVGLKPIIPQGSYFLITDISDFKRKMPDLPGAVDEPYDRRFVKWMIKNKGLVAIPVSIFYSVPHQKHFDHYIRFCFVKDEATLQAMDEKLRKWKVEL

Rattus norvegicus [26] = experiment: as §3; format: functional, organism-based; remark: listed apart in the source
Rattus norvegicus [27] = experiment: as §2; format: functional, organism-based; remark: listed apart in the source
Rattus norvegicus [28] = experiment: Protection against multiple organ dysfunction syndrome in acute pancreatitis-induced rat assessed as decrease in stress response plasma glucose levels at 20 mg/kg, iv as bolus dose administered 1 hr post acute pancreatitis induction followed by drug administration at 2.2 mg/kg/hr, iv as infusion over 5 hrs; format: functional, organism-based
Rattus norvegicus [29] = experiment: In vivo inhibition of KMO in iv dosed rat assessed as decrease in circulating 3-hydroxykynurenine levels in plasma measured post last dose; format: functional, organism-based
Rattus norvegicus [30] = experiment: Organoprotective activity in kidney of acute pancreatitis […] assessed as reduction in apoptotic cell count in the outer medullary stripe at 20 mg/kg, iv as bolus dose administered 1 hr post acute pancreatitis induction followed by drug administration at 2.2 mg/kg/hr, iv as infusion over 5 hrs by TUNEL staining analysis; format: functional, organism-based
Rattus norvegicus [31] = experiment: as §4, with “alveolar-epithelial thickening” for “inflammatory infiltrates”; format: functional, organism-based
Rattus norvegicus [32] = experiment: Increase in anthranilic acid levels in iv dosed rat plasma measured post last dose; format: functional, organism-based
Rattus norvegicus [33] = experiment: as §2; format: functional, organism-based; remark: listed apart in the source
Rattus norvegicus [34] = experiment: Decrease in 3-hydroxykynurenine level in plasma of rat model of cerulean-induced acute pancreatitis at 20 mg/kg, iv administered as bolus dose followed by 2.2 mg/kg/hr 5 hrs iv infusion; format: functional, organism-based
[35] = target: Kynurenine 3-monooxygenase (Homo sapiens, UniProt O15229)
Homo sapiens = species on record: Homo sapiens; experiment: Inhibition of IDO (unknown origin)
Rattus norvegicus [36] = experiment: as §3; format: functional, organism-based; remark: listed apart in the source
[37] = Drug uptake in plasma of rat model of cerulean-induced acute pancreatitis at 20 mg/kg, iv administered as bolus dose followed by 2.2 mg/kg/hr, iv infusion for 5 hrs; format: ADME, organism-based

Kynurenine 3-monooxygenase (Homo sapiens, UniProt O15229), sequence (O15229 whole entry, looked up): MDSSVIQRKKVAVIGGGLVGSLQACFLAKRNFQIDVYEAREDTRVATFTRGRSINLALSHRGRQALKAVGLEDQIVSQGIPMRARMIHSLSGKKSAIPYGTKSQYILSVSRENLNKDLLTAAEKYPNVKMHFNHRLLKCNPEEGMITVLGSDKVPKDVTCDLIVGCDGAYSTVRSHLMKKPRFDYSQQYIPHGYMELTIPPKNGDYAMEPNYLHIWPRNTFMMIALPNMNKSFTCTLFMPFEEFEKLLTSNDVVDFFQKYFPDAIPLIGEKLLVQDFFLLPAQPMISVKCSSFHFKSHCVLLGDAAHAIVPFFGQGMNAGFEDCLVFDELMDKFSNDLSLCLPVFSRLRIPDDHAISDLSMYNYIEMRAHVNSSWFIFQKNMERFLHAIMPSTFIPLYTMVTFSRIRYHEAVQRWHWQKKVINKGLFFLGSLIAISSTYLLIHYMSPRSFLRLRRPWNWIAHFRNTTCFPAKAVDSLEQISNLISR
Tryptophan 2,3-dioxygenase (Homo sapiens), sequence (P48775 whole entry, looked up): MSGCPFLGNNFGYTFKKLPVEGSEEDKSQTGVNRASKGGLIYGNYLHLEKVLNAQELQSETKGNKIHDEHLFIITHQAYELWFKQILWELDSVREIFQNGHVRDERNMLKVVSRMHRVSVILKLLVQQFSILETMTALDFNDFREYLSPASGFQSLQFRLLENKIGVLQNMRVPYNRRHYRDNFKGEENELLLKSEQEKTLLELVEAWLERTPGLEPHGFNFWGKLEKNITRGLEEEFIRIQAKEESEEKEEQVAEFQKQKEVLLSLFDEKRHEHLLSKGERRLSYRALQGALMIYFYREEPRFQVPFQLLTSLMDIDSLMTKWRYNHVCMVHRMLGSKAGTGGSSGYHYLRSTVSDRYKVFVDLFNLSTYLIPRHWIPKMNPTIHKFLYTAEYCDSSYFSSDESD
Kynurenine 3-monooxygenase (Rattus norvegicus, UniProt O88867), sequence (O88867 whole entry): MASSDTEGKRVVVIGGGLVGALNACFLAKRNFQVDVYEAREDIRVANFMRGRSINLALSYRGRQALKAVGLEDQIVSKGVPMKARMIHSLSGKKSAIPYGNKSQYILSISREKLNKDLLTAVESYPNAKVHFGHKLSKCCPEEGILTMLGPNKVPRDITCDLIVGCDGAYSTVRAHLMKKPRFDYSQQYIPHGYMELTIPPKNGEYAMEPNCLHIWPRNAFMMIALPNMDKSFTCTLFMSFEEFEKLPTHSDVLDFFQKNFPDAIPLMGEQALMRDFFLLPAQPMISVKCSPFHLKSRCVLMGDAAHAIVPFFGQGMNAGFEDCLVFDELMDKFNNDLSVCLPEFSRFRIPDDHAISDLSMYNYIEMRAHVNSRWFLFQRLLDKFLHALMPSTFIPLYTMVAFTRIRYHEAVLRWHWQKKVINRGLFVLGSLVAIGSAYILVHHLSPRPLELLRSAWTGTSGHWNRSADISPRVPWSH
Kynurenine/alpha-aminoadipate aminotransferase, mitochondrial (Homo sapiens), sequence (Q8N5Z0 30-425 limits assumed): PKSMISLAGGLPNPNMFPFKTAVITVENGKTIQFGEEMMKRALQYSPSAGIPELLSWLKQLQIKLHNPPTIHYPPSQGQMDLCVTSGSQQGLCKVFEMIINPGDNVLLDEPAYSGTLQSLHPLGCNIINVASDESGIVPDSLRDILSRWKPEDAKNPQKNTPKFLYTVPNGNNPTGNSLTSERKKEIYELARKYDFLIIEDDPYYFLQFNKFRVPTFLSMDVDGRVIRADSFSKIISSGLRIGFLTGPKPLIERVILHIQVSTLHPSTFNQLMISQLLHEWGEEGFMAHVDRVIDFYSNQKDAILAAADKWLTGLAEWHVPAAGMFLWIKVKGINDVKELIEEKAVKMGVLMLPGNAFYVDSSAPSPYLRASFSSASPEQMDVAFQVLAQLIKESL

- half-life [1]: 5.8 h
- Cp(f) (Plasma [2]): 405 nM
- Cp(f) (Plasma [3]): 50 nM
- Vd [4]: 0.36 L/kg
- remaining at 12 h [5]: 97.7%
- half-life [6]: 6.6 h
- half-life [7]: > 1000 h
- clearance [8]: 0.93 mL/min/kg
- Ki [9]: 45 nM
- clearance [10]: 0.8 mL/min/kg
- Vd [11]: 0.42 L/kg
- fraction unbound [12]: 0.022
- Cp(f) (Plasma [13]): 3 nM
Compound: C[C@@H](Oc1cc2onc(CCC(=O)O)c2cc1Cl)c1ccccn1 [GSK-065]

- inhibition [15]: inactive
- inhibition [16]: inactive
- inhibition [19]: inactive
- inhibition [25]: inactive
- T1/2 [35]: 10 h
- inhibition (Homo sapiens): inactive
Compound: C[C@@H](Oc1cc2onc(CCC(=O)O)c2cc1Cl)c1ccccn1
- inhibition (Rattus norvegicus [14]): Active
- Activity (Rattus norvegicus [17]): Dose-dependent effect
- Activity (Rattus norvegicus [18]): Active
- Activity (Rattus norvegicus [20]): Active
- Activity (Rattus norvegicus [21]): Active
- Activity (Rattus norvegicus [22]): inactive
- Activity (Rattus norvegicus [23]): Active
- Activity (Rattus norvegicus [24]): Active
- Activity (Rattus norvegicus [26]): inactive
- inhibition (Rattus norvegicus [27]): Active
- Activity (Rattus norvegicus [28]): Active
- inhibition (Rattus norvegicus [29]): Dose-dependent effect
- Activity (Rattus norvegicus [30]): Active
- Activity (Rattus norvegicus [31]): Active
- Activity (Rattus norvegicus [32]): Dose-dependent effect
- inhibition (Rattus norvegicus [33]): Active
- Activity (Rattus norvegicus [34]): Active
- Activity (Rattus norvegicus [36]): inactive

- concentration at 5 h [37]: 600000 nM
Compound: C[C@@H](Oc1cc2onc(CCC(=O)O)c2cc1Cl)c1ccccn1.NCCO

Source: ChEMBL document CHEMBL4049435, “Development of a Series of Kynurenine 3-Monooxygenase Inhibitors Leading to a Clinical Candidate for the Treatment of Acute Pancreatitis” (J Med Chem, 2017)
